Numbered stars: 1 amine (or outer) side, 2 acyl side, 3 side chain; on linkers, the order of the positions; unused ones are H or OH. Bridge positions count the residues as written; N and C are the ends. Square brackets hold non-standard residues; d marks the D form. Peptide text beside a SMILES is read from it. Phe(4-(4-Ac-piperazinyl)) = CC(=O)N1CCN(c2ccc(C[C@H](N)C(=O)O)cc2)CC1; Trp(βS-Me,7-OMe) = COc1cccc2c([C@H](C)[C@H](N)C(=O)O)c[nH]c12; Acbc(cis-1,3) = O=C([C@H]1C[C@@H](N[*:1])C1)[*:2]; Trp(7-CN) = N#Cc1cccc2c(C[C@H](N)C(=O)O)c[nH]c12; Trp(7-Cl) = N[C@@H](Cc1c[nH]c2c(Cl)cccc12)C(=O)O; Ala(pyrimidin-5-yl) = N[C@@H](Cc1cncnc1)C(=O)O; Phe(4-CONH2) = NC(=O)c1ccc(C[C@H](N)C(=O)O)cc1; Phe(4-COOH) = N[C@@H](Cc1ccc(C(=O)O)cc1)C(=O)O; 4Pal(3S-Me) = C[C@@H](c1ccncc1)[C@H](N)C(=O)O; Ala(4-Pyridazinyl) = N[C@@H](Cc1ccnnc1)C(=O)O; Trp(7-aza) = N[C@@H](Cc1c[nH]c2ncccc12)C(=O)O; 3Pal(6-OMe) = COc1ccc(C[C@H](N)C(=O)O)cn1; X41 = O=C([C@@H]1C[C@H](O)CCN1[*:1])[*:2]; Pip(5R-OH) = O=C(O)[C@@H]1CC[C@@H](O)CN1; X1 = O=C([C@@H]1CC[C@H](N[*:1])C1)[*:2]; Pip(4-aza) = O=C(O)[C@@H]1CNCCN1; 4Pal = N[C@@H](Cc1ccncc1)C(=O)O; NMeE = CN[C@@H](CCC(=O)O)C(=O)O; dHyp = O=C(O)[C@H]1C[C@H](O)CN1; d(αMeP) = C[C@]1(C(=O)O)CCCN1; Ahp(2) = CCCCC[C@H](N)C(=O)O; αMeS = C[C@](N)(CO)C(=O)O; Nle = CCCC[C@H](N)C(=O)O; Sar = CNCC(=O)O

The IC50 is the concentration that inhibits the measured activity by half.

In this assay the target is T1, TNFα-induced NF-κB signal transduction pathway (TNFR1 signaling) in THP-1 cells (Homo sapiens, UniProt P19438).
T1 sequence (P19438 30-455): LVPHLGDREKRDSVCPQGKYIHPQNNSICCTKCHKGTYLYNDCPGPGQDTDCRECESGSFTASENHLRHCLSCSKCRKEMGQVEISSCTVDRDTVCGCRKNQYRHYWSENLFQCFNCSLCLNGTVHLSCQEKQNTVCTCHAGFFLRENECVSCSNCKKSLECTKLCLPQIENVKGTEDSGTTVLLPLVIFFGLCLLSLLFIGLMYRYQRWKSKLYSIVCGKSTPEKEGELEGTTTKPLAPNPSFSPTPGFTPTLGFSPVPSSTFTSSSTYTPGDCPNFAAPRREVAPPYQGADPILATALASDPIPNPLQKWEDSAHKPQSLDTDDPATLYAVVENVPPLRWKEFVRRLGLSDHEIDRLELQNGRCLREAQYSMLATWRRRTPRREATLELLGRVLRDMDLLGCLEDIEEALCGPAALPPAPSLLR
Put plainly: THP-1 Lucia NF-κB reporter cell assay, inhibition of TNFα-induced NF-κB signaling. The conditions noted are these: THP-1 NF-κB Lucia reporter cells, 10 ng/mL TNFα, 16-18 h, secreted luciferase; read-out: THP-1 IC50. It is filed as cell-based. The protocol:
C. Procedure for THP-1 Lucia NF-κB cells
The inhibition of TNFα-induced NF-κB signal transduction pathways was evaluated in THP-1 cells. THP-1 cells harboring NF-κB-inducible Lucia™ reporter gene (InvivoGen, cat. #thp1-nfkb) designed for monitoring NF-κB signal transduction pathway was employed to assess the inhibitory effect macrocyclic peptides on TNFR1 signaling. The cells were cultured in media containing RPMI 1640, 2 mM L-glutamine, 25 mM HEPES, 10% heat-inactivated fetal bovine serum with appropriate selection antibiotics. Assays were performed in media that was devoid of selection antibiotics. For profiling, 125 nL of peptides in DMSO (10 mM) were dispensed into Falcon® 384-well Optilux white/clear flat bottom TC-treated microtest microplate (Corning, cat. #353963) using Echo® 555. […] A suspension of 1 million cells/mL was dispensed at 20 μL/well in a 384-well plate to a density of 20,000 cells/well and pre-incubated with peptides at 37° C. for 1 h. Subsequently, 5 μL of TNF containing media (recombinant human TNFα; R&D Systems USA, cat. #210-TA-005/CF) or TNF-free media (for controls) was added to the wells. The final concentration of TNFα in the assay in 10 ng/mL. After o.n. incubation at 37° C. (16-18 h), 5 μL of supernatant was aspirated and transferred to a 384-well microplate (PerkinElmer, cat. #6007680) for measurement of secreted luciferase activity with 25 μL of QUANTI-Luc™ luminescence assay reagent (InvivoGen, cat. #rep-qlc1) in each well. The luminescence was measured in EnVision® Multimode Plate Reader (PerkinElmer). Dose response curves were analyzed using a 4-parameter logistic model to calculate IC50 values, reported in Table 2, using TIBCO® Spotfire® software employing appropriate Minimum and Maximum controls.
With `CCCCC[C@@H]1NC(=O)[C@@H]2CC[C@@H](C2)NC(=O)[C@H]([C@@H](C)c2c[nH]c3c(OC)cccc23)NC(=O)CN(C)C(=O)[C@H](Cc2ccc(C(N)=O)cc2)NC(=O)[C@H](Cc2ccc(C(N)=O)cc2)NC(=O)[C@](C)(CO)NC(=O)[C@H](Cc2c[nH]c3c(C#N)cccc23)NC(=O)[C@H](Cc2ccc(C(=O)O)cc2)NC(=O)[C@H](CC(N)=O)NC(=O)[C@H]2C[C@H](O)CN2C(=O)[C@H](Cc2c[nH]c3ccccc23)NC(=O)[C@H](CC(=O)O)NC(=O)[C@H]([C@@H](C)c2ccncc2)NC1=O` [SEQ ID NO. 55] (cyclo([Ahp(2)][4Pal(3S-Me)]DW[dHyp]N[Phe(4-COOH)][Trp(7-CN)][αMeS][Phe(4-CONH2)][Phe(4-CONH2)][Sar][Trp(βS-Me,7-OMe)][X1])), the IC50 worked out at 1.3 nM.

For the compound `CCCC[C@@H]1NC(=O)[C@@H]2CC[C@@H](C2)NC(=O)[C@H]([C@@H](C)c2c[nH]c3c(OC)cccc23)NC(=O)CN(C)C(=O)[C@H](Cc2ccc(N3CCN(C(C)=O)CC3)cc2)NC(=O)[C@H](Cc2ccc(C(=O)O)cc2)NC(=O)[C@](C)(CO)NC(=O)[C@H](Cc2c[nH]c3c(Cl)cccc23)NC(=O)[C@H](Cc2ccncc2)NC(=O)[C@H](CC(N)=O)NC(=O)[C@H](CCC(=O)O)N(C)C(=O)[C@H](Cc2c[nH]c3ccccc23)NC(=O)[C@@H]2CNCCN2C(=O)[C@H](Cc2ccncc2)NC1=O` [SEQ ID NO. 63] (cyclo([4Pal][Trp(7-Cl)][αMeS][Phe(4-COOH)][Phe(4-(4-Ac-piperazinyl))][Sar][Trp(βS-Me,7-OMe)][X1][Nle][4Pal][Pip(4-aza)]W[NMeE]N)), the IC50 was 1.2 nM.

As for `CCCC[C@@H]1NC(=O)CSC[C@@H](C(N)=O)NC(=O)[C@H]([C@@H](C)c2c[nH]c3c(OC)cccc23)NC(=O)CN(C)C(=O)[C@H](Cc2ccc(O)cc2)NC(=O)[C@H](Cc2ccc(C(=O)O)cc2)NC(=O)[C@](C)(CO)NC(=O)[C@H](Cc2c[nH]c3c(Cl)cccc23)NC(=O)[C@H](Cc2ccncc2)NC(=O)[C@H](CC(N)=O)NC(=O)[C@H](CCC(=O)O)N(C)C(=O)[C@H](Cc2c[nH]c3ncccc23)NC(=O)[C@@H]2CNCCN2C(=O)[C@H](Cc2cncnc2)NC1=O` [SEQ ID NO. 65] ({CH2CO}-[Nle][Ala(pyrimidin-5-yl)][Pip(4-aza)][Trp(7-aza)][NMeE]N[4Pal][Trp(7-Cl)][αMeS][Phe(4-COOH)]Y[Sar][Trp(βS-Me,7-OMe)]C-NH2; thioether N-14), the IC50 was found to be 4 nM.

As to `CCCC[C@@H]1NC(=O)[C@H]2C[C@H](C2)NC(=O)[C@H]([C@@H](C)c2c[nH]c3c(OC)cccc23)NC(=O)CN(C)C(=O)[C@H](Cc2ccc(O)cc2)NC(=O)[C@H](Cc2ccc(C(=O)O)cc2)NC(=O)[C@](C)(CO)NC(=O)[C@H](Cc2c[nH]c3c(Cl)cccc23)NC(=O)[C@H](Cc2ccncc2)NC(=O)[C@H](CC(N)=O)NC(=O)[C@H](CCC(=O)O)N(C)C(=O)[C@H](Cc2c[nH]c3ccccc23)NC(=O)[C@@H]2CNCCN2C(=O)[C@H](Cc2ccncc2)NC1=O` [SEQ ID NO. 69] (cyclo([4Pal][Trp(7-Cl)][αMeS][Phe(4-COOH)]Y[Sar][Trp(βS-Me,7-OMe)][Acbc(cis-1,3)][Nle][4Pal][Pip(4-aza)]W[NMeE]N)), the IC50 came to 1.6 nM.

On to `CCCC[C@@H]1NC(=O)CSC[C@@H](C(N)=O)NC(=O)[C@H]([C@@H](C)c2c[nH]c3c(OC)cccc23)NC(=O)CN(C)C(=O)[C@H](Cc2ccc(O)cc2)NC(=O)[C@H](Cc2ccc(C(=O)O)cc2)NC(=O)[C@](C)(CO)NC(=O)[C@H](Cc2c[nH]c3c(Cl)cccc23)NC(=O)[C@H](Cc2ccncc2)NC(=O)[C@H](CC(N)=O)NC(=O)[C@H](CCC(=O)O)N(C)C(=O)[C@H](Cc2c[nH]c3ccccc23)NC(=O)[C@@H]2C[C@H](O)CCN2C(=O)[C@H](Cc2ccncc2)NC1=O` [SEQ ID NO. 71] ({CH2CO}-[Nle][4Pal][X41]W[NMeE]N[4Pal][Trp(7-Cl)][αMeS][Phe(4-COOH)]Y[Sar][Trp(βS-Me,7-OMe)]C-NH2; thioether N-14), for which the IC50 came to 2.8 nM.

With `CCCC[C@@H]1NC(=O)CSC[C@@H](C(N)=O)NC(=O)[C@H]([C@@H](C)c2c[nH]c3c(OC)cccc23)NC(=O)CN(C)C(=O)[C@H](Cc2ccc(O)cc2)NC(=O)[C@H](Cc2ccc(C(=O)O)cc2)NC(=O)[C@](C)(CO)NC(=O)[C@H](Cc2c[nH]c3c(Cl)cccc23)NC(=O)[C@H](Cc2ccncc2)NC(=O)[C@H](CCC(=O)N(C)C)NC(=O)[C@H](CCC(=O)O)N(C)C(=O)[C@H](Cc2c[nH]c3ccccc23)NC(=O)[C@@H]2CNCCN2C(=O)[C@H](Cc2ccncc2)NC1=O` [SEQ ID NO. 75] ({CH2CO}-[Nle][4Pal][Pip(4-aza)]W[NMeE]E(NMe2)[4Pal][Trp(7-Cl)][αMeS][Phe(4-COOH)]Y[Sar][Trp(βS-Me,7-OMe)]C-NH2; thioether N-14), the IC50 amounted to 6.1 nM.

On to `CCCC[C@@H]1NC(=O)CSC[C@@H](C(N)=O)NC(=O)[C@H]([C@@H](C)c2c[nH]c3c(OC)cccc23)NC(=O)CN(C)C(=O)[C@H](Cc2ccc(O)cc2)NC(=O)[C@H](Cc2ccc(C(=O)O)cc2)NC(=O)[C@](C)(CO)NC(=O)[C@H](Cc2c[nH]c3c(Cl)cccc23)NC(=O)[C@H](Cc2ccncc2)NC(=O)[C@H](CC(N)=O)NC(=O)[C@@]2(C)CCCN2C(=O)[C@H](Cc2c[nH]c3ccccc23)NC(=O)[C@@H]2CNCCN2C(=O)[C@H](Cc2ccncc2)NC1=O` [SEQ ID NO. 76] ({CH2CO}-[Nle][4Pal][Pip(4-aza)]W[d(αMeP)]N[4Pal][Trp(7-Cl)][αMeS][Phe(4-COOH)]Y[Sar][Trp(βS-Me,7-OMe)]C-NH2; thioether N-14), for which the IC50 amounted to 4.7 nM.

On to `CCCC[C@@H]1NC(=O)[C@@H]2CC[C@@H](C2)NC(=O)[C@H]([C@@H](C)c2c[nH]c3c(OC)cccc23)NC(=O)CN(C)C(=O)[C@H](Cc2ccc(O)cc2)NC(=O)[C@H](Cc2ccc(C(=O)O)cc2)NC(=O)[C@](C)(CO)NC(=O)[C@H](Cc2c[nH]c3c(Cl)cccc23)NC(=O)[C@H](Cc2ccc(OC)nc2)NC(=O)[C@H](CC(N)=O)NC(=O)[C@H](CCC(=O)O)N(C)C(=O)[C@H](Cc2c[nH]c3ccccc23)NC(=O)[C@@H]2CNCCN2C(=O)[C@H](Cc2ccncc2)NC1=O` [SEQ ID NO. 100] (cyclo([4Pal][Pip(4-aza)]W[NMeE]N[3Pal(6-OMe)][Trp(7-Cl)][αMeS][Phe(4-COOH)]Y[Sar][Trp(βS-Me,7-OMe)][X1][Nle])), for which the IC50 was 1.3 nM.

`CCCC[C@@H]1NC(=O)[C@@H]2CC[C@@H](C2)NC(=O)[C@H]([C@@H](C)c2c[nH]c3c(OC)cccc23)NC(=O)CN(C)C(=O)[C@H](Cc2ccc(C(=O)O)cc2)NC(=O)[C@H](Cc2ccc(C(N)=O)cc2)NC(=O)[C@](C)(CO)NC(=O)[C@H](Cc2c[nH]c3c(Cl)cccc23)NC(=O)[C@H](Cc2ccc(C(=O)O)cc2)NC(=O)[C@H](CC(N)=O)NC(=O)[C@H]2C[C@H](O)CN2C(=O)[C@H](Cc2c[nH]c3ccccc23)NC(=O)[C@@H]2CC[C@@H](O)CN2C(=O)[C@H](Cc2ccnnc2)NC1=O` [SEQ ID NO. 105] (cyclo(N[Phe(4-COOH)][Trp(7-Cl)][αMeS][Phe(4-CONH2)][Phe(4-COOH)][Sar][Trp(βS-Me,7-OMe)][X1][Nle][Ala(4-Pyridazinyl)][Pip(5R-OH)]W[dHyp])): the IC50 worked out at 0.7 nM.

The values are drawn from patent US20240287138A1, “CYCLIC PEPTIDES FOR INHIBITING TNF RECEPTOR 1 ACTIVITY” (Merck Sharp & Dohme LLC, priority 2023, published 2024).
